Patent US20100105707A1, “METHOD OF TREATING OR PREVENTING OXIDATIVE STRESS-RELATED DISEASE” (The United States of America, priority 2006, published 2010)
In brackets after ≈: the same amount, converted by molar mass.

Columns and labels:
[1] = Pharmacokinetics: plasma and brain levels after intravenous administration; format: in vivo, C57BL/6 mice; conditions: mice
Description: Mice are administered intravenously 10 mg/kg ([…]) of uric acid as a reference compound and equimolar doses of its analogs (sUA4-2,6,8 trithio uric acid, 12.9 mg/kg; mUA2-1,7 dimethyl uric acid, 11.7 mg/kg; sUA2-6,8 dithio uric acid, 11.9 mg/kg). Three month-old male C57BL/6 mice are injected with a compound and are euthanized 15, 30, 60 or 120 min later (1 mouse/time point/compound). Blood and brain tissues are rapidly removed, frozen on dry ice and kept at −80° C. before quantification of uric acid analogs. Plasma and cerebral cortical tissues are extracted in 10 volumes of 0.5 M perchloric acid and 1 mM ethylenediamine tetraacetic acid (EDTA). Levels of uric acid analogs in the extracts are quantified by HPLC methods employing a 25 cm RP C18 column, 25 mM KH2PO4 buffer (pH=4.6) with 1 ml/min flow rate and UV diode array detection.
Mice that are administered mUA2, sUA2 or sUA4 intravenously are euthanized at increasing time points (15, 30, 60 and 120 min) and levels of the compounds in plasma and brain tissue are measured.

[2] = Water solubility in cold water; format: physicochemical
Description: Commercially available derivatives are obtained from Sigma-Aldrich (St. Louis, Mo.). The methods used for the synthesis of methyl- and sulfur-derivatives of uric acid are similar to those described previously (Beaman et al., J. Org. Chem., 27, 986-990 (1962) and Maruyama et al., Nucleosides, Nucleotides, Nucleic Acids, 19, 1193-1203 (2000)) and structures are confirmed by ^13C nuclear magnetic resonance (NMR) and ultra-violet (UV) spectral analyses. Uric acid analogs are assayed by high performance liquid chromatography (HPLC) and found to be of >97% purity.

skin wound = assay: Punch biopsy wound healing model; format: in vivo, C57BL/6 mice; conditions: single topical dose at time of wounding; on average; saline control greater than 13 days
From the text: A defined wound is created with a 4 mm Accuderm human punch biopsy kit (Accuderm, Ft Lauderdale, Fla.) in C57BL/6 mice. Specifically, the loose skin on the back of a mouse was brought together and, under anesthetic, a single punch was made through either side to create two wounds through the skin alone—without affecting underlying tissue. Immediately post-wounding, the wounds are either treated topically with normal saline (to serve as the non-treated control group) or with a compound of formula (I). Each day the wounds are digitally photographed and wound areas are determined by computer integration of the photographs. Wound area at the time of wounding (day 0) is arbitrarily set to a relative value of 1 for all wounds; such that subsequent wound areas are converted to relative wound areas by dividing the wound area at day n by the wound area at day zero.

[3] = test system: mouse model of focal ischemic stroke; assay: Focal cerebral ischemia-reperfusion (middle cerebral artery occlusion) model; format: in vivo, C57BL/6 mice; conditions: administered 1 h after ischemia onset
Description: (§1) FIG. 4 illustrates that a compound of formula (I) improves functional outcome (e.g., ambulation) and reduces brain damage in a mouse model of focal ischemic stroke in an embodiment of the invention. In FIG. 4A neurological function is scored at 24, 48 and 72 hours post-stroke. In FIG. 4B infarct volume is quantified at 72 hours post-stroke. Values are the mean and SEM (n=8-12 mice). *p<0.001 compared to sham. +p<0.01 compared to vehicle.
as §1, with “FIG. 5” for “FIG. 4”, “that compounds” for “that a compound”, “(I) improve” for “(I) improves”, “outcome” for “outcome (e.g., ambulation)”, “FIG. 5A,” for “FIG. 4A”, “FIG. 5B,” for “FIG. 4B”
Three month-old male C57BL/6 mice are maintained on a 12 h light/12 h dark cycle with continuous access to food and water. The method for subjecting the mice to middle cerebral artery occlusion-reperfusion has been described previously (Arumugam et al., Am. J. Physiol. Heart Circ. Physiol., 287, H2555-2560 (2004)). Mice are anesthetized with isofluorane, a midline incision is made in the neck, and the left external carotid and pterygopalatine arteries are isolated and ligated with 5-0 silk thread. The internal carotid artery (ICA) is occluded at the peripheral site of the bifurcation of the internal carotid artery and the pterygopalatine artery with a small clip and the common carotid artery is ligated with 5-0 silk thread. The external carotid artery is cut, and a 6-0 nylon monofilament with a tip that is blunted (0.2-0.22 mm) with a coagulator is inserted into the external carotid artery. After the clip at the ICA is removed, the nylon thread is advanced into the middle cerebral artery until light resistance is felt. The nylon thread and the common carotid artery ligature are removed after 1 h of occlusion to initiate reperfusion. In the sham group, these arteries are visualized but not disturbed. Mice are administered either uric acid analogs of formula (I) or vehicle (dimethylsulfoxide) by infusion into the femoral vein (10 μl infused over a 2 min period) either 30 min prior to or 60 min after the onset of middle cerebral artery (MCA) occlusion. In a separate set of experiments anesthetized animals from all groups (4-6 mice per group) undergo cerebral blood flow (CBF) measurements using a laser Doppler perfusion monitor. All blood flow measurements are conducted with the mouse fixed in a plastic frame with the probe placed in the region of cerebral cortex perfused by the middle cerebral artery. These procedures are approved by the National Institute on Aging Animal Care and Use Committee.
The functional consequences of focal cerebral ischemia-reperfusion injury are evaluated by using a five-point neurological deficit score (0, no deficit; 1, failure to extend right paw; 2, circling to the right; 3, falling to the right; and 4, unable to walk spontaneously) and are assessed in a blinded fashion. At 72 h of reperfusion, the mice are killed with a lethal dose of isofluorane. The brains are immediately removed and placed into PBS (4° C.) for 15 min, and 2-mm coronal sections are cut with a tissue cutter. The brain sections are stained with 2% 2,3,5-triphenyltetrazolium chloride in phosphate buffer at 37° C. for 15 min. The stained sections are photographed, and the digitized images are used for analysis. The borders of the infarct in each brain slice are outlined and the area quantified using a NIH image 6.1 software. To correct for brain swelling, the infarct area is determined by subtracting the area of undamaged tissue in the left hemisphere from that of the intact contralateral hemisphere. Infarct volume is calculated by integration of infarct areas for all slices of each brain.

[4] = test system: cultured hippocampal neurons; assay: Oxygen and glucose deprivation (OGD) of cultured hippocampal neurons; format: cell-based, rat; conditions: compared to neurons in control cultures; FIG. 2
Description: FIG. 2 illustrates that compounds of formula (I) protect cultured hippocampal neurons against ischemia-like conditions in an embodiment of the invention. Neuronal survival is quantified and values are the mean and SEM (n=8-10 cultures). *p<0.05 compared to the vehicle/OGD cultures. Synaptosomes are prepared from the cerebral cortex of 2-3 month-old adult male Sprague-Dawley rats and are cryopreserved using methods described previously (Begley et al., Brain Res. Protoc., 3, 76-82 (1998)). After thawing, cryopreserved synaptosomes are washed twice with Locke's buffer and plated in 24-well plates at a protein concentration of 250 μg per well. After a 30 min period to permit attachment of the synaptosomes to the substrate, synaptomoses are incubated for 1 h with compounds of formula (I) (1-10 μM), and then exposed for 4 h to freshly prepared 50 μM Fe^2+ (FeSO4). After an additional 30 min incubation in the presence of 10 μM dihydrorhodamine 123 (DHR), a probe for ROS which fluoresces when oxidized (Keller et al., J. Neurochem., 69, 273-284 (1997)), the synaptosomes are washed twice with Locke's buffer and levels of fluorescence are quantified using a fluorescence plate reader (488 nm excitation and 510 emission wavelengths). Fluorescence values for wells exposed to experimental treatments are expressed as a percentage of the mean value for untreated control wells. […] Methods for preparation and maintenance of cultures of PC12 cells and primary embryonic rat hippocampal neurons have been described previously (Furukawa et al., J. Neurosci., 17, 8178-8186 (1997) and Chan et al., J. Biol. Chem., 279, 28733-28743 (2004)). Cells are plated into polyethylenimine-coated plastic 96-well culture plates containing Neurobasal medium with B27 supplements. Experiments are performed in 7-8 day-old cultures (hippocampal neurons) or Dulbecco's modified eagle's medium (DMEM) with 10% fetal bovine serum (PC12 cells). […] Cell viability is quantified by counting viable neurons in premarked microscope fields prior to and following experimental treatment and then calculating percent survival.

## O=c1[nH]c(=S)c2[nH]c(=S)[nH]c2[nH]1 [sUA2, 6,8 dithio uric acid]
[1]; male, C57BL/6, mouse, brain (cerebral cortical tissue) / plasma, early time points (15-30 min), read-out: brain tissue concentration as percentage of plasma concentration
  Kp: ~0.1
[1]; equimolar to 10 mg/kg uric acid, 15, 30, 60 and 120 min
  detection in the brain: detected in the brain at all time points examined
[1]; through the 120 min time point
  brain concentration time course versus plasma: remain elevated while plasma concentrations decrease progressively
[2]
  solubility: 2000 µg/mL (≈ 9.99 mM)
Skin wound
  time to wound closure post wounding: 8 days
[3]; FIG. 5A
  functional outcome (neurological deficit score): significantly improve functional outcome
[3]; FIG. 5B
  brain damage: decrease brain damage
[4]
  resistance to OGD induced death: significantly more resistant
